Assay results as given in patent US12396988B2, “Methods of using muscarinic antagonists in the treatment of depression” (BOARD OF REGENTS, THE UNIVERSITY OF TEXAS SYSTEM, priority 2019, dated 2025).
Entries after “also recorded” stand apart in the source; their conditions may differ. Structures can show the parent of a compound that is named as a salt.

Assays:
[1] = test system: rats; assay: Forced swim test (FST); assay type: in vivo; details: 3 mg/kg, 30 min before a 15-min swim, FIG. 4
Procedure: In the FST, the rats are injected with a test compound and 30 minutes later placed individually in a cylindrical container filled with water at room temperature. The rat's behavior is videotaped from above and is later scored by a trained observed who is blind to the drug conditions. Behavior is classified every 5 seconds over the 15 minute swim period as the following: immobility the rat is hanging quietly in the water, making only enough movement to keep its nose out of the water; swimming moving limbs in an active manner, climbing or actively moving its forepaws against the side of the chamber.
Rats of both sexes as well as rats from the Flinders straw were used for forced swim tests. The rats were injected with a saline control or CJ2100 (0.1 mg/kg, 0.3 mg/kg, 1 mg/kg, or 3 mg/kg) and 30 min later placed individually a cylindrical container (46 cm tall×20 cm, diameter) filled to 30 cm with 25° C. water for a single 15-min forced swim test. Rat behavior was videotaped from above and later scored by a trained observer who was blind to the drug conditions. Behavior was classified every 5 seconds over the 15 minute swim period as following: immobility rat was hanging quietly in the water, making only enough movement to keep its nose out of the water; swimming moving limbs in an active manner, climbing, or actively moving its forepaws against the side of the chamber. […]

[2] = test system: rats; assay: Cognitive evaluation: psychomotor vigilance (PVT) touch-screen task, attention; assay type: in vivo; details: doses 0.1-10 mg/kg, FIG. 5 right panel
Source text: Psychomotor vigilance is used to evaluate drug effects of attention and vigilance over a period of time. Championed by David Dinges of U. Penn School of Medicine, it is a reaction timed task to measure the speed with which subjects responds to a visual stimulus. In the task, stimuli of varying intensity are presented to a subject (a rat) in randomized location on the screen following unpredictable intervals. The reaction time of the rat to the stimuli will provide a reliable attention threshold in each individual subject. Attention will decrease over time which serves as a baseline for degradation of sustained vigilance. For these studies, a stimulus is presented on a screen in a random location following a variable time interval (5, 15, 30 seconds). Duration of presentation of the stimulus is 2 seconds on first trial. If the correct stimulus is touched by the rat within 2 seconds, a mild reward is delivered and duration of stimulus presentation is […] by 0.25 seconds for subsequent trials (across 500 trials).
(§1) Additional tests involved a novel touch-screen procedure that evaluated memory (delayed-matching-to-sample, DMTS) and attention (psychomotor vigilance, PVT).
Psychomotor vigilance (PVT) is used to evaluate drug effects on attention and vigilance over a period of time. Championed by David Dinges of U. Penn. […]

[3] = test system: rats; assay: Drug discrimination test (arecoline vs saline; discriminative stimulus and rate-decreasing effects of arecoline); assay type: in vivo, Sprague-Dawley rats; details: 1.0 mg/kg CJ2100, rats, FIG. 2
Source text: Rats are initially trained to nose-poke 10 times in any aperture to receive a dipper of Ensure (fixed ratio 10 FR-10 schedule of reinforcement). Nose-poke biases are noted, and the following assignments are made for the 2-nose-poke condition: 1) approximately half of the rats in each group will have the drug-associated aperture on the left, and the remaining rats will have the drug-associated aperture on the right; 2) the drug-associated aperture is assigned to the non-preferred side in half of the rats.
During training, the rats are injected with saline or their training drug and immediately placed in the chamber for a 5-min blackout, followed by a 20-min response period. […]
When these criteria have been met on 3 consecutive days, testing can begin. […] When the effects of putative antagonists are to be evaluated, these drugs are given 15 min before the start of the session, and the training drug is injected immediately before the rat is placed in the chamber. […]
Data analysis: Full generalization to a test compound is defined as >85% responding on the drug-appropriate aperture, and completing at least one ratio. Discrimination data are expressed as the percent responses on the drug-appropriate aperture, out of the total number of responses made in both apertures. Rates of responding are calculated as well: total number of responses/time during the light-on parts of the session. […]

[4] = test system: rats; assay: Cognitive evaluation: delayed-matching-to-sample (DMTS) touch-screen task, short-term memory; assay type: in vivo; details: doses 0.1-3.2 mg/kg, FIG. 5 left panel
Source text: In cognitive evaluation tests, rats are exposed to a touch screen procedure that evaluates memory (delayed matching to sample, DMTS) and attention (psychomotor vigilance). In the DTMS, a commonly used recognition task to test short-term memory, the subject (a rat) is presented with a sample stimulus. In our procedure, when the rats touch the sample stimulus it terminates on the screen. After a pre-set delay two comparison stimuli appear. A touch response on the comparison stimulus that matches some physical property of the sample stimulus (i.e. color) results in reward delivery. Touching the incorrect comparison stimulus results in a timeout. Accuracy is then plotted vs different delay values to determine a “forgetting function”. This same procedure has been used by many others to assess the deleterious effects of various classes of psychoactive drugs.
as §1
In the DMTS, a commonly used recognition task to test short-term memory, rats were presented with a sample stimulus. When the rats touched the sample stimulus, it terminated on the screen. After a pre-set delay, two comparison stimuli appeared. […] Accuracy was then plotted vs. different delay values to determine a “forgetting function.”

[5] = target: T1, M2 receptor (Rattus norvegicus, UniProt P10980); assay: Cardiovascular assay (bradycardia test): antagonism of arecoline-induced bradycardia, telemetry; assay type: in vivo; details: 1 mg/kg test compound s.c. before 10 mg/kg arecoline s.c., rats, FIG. 1
T1 construct: To measure changes in heart rate and mean arterial pressure, rats were implanted with telemetric transmitters; from tissue; host or cells: intact living rats (cardiovascular system, telemetry)
T1 sequence (P10980 1-466): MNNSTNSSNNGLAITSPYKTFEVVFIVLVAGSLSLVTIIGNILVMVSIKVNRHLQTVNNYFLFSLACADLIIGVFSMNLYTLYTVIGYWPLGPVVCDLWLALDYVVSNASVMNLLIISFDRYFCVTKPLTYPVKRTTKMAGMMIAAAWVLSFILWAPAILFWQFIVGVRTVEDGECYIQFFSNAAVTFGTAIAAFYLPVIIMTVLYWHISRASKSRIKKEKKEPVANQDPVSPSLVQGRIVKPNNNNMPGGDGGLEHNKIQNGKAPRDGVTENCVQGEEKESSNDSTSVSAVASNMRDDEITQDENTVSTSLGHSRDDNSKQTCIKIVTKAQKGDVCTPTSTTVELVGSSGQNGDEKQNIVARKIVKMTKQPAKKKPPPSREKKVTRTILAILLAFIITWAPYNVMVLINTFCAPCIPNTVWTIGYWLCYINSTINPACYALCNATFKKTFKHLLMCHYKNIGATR
Source text: All rats continued to have free access to food and water at all times.

[6] = test system: rats; details: cited from earlier work
[7] = test system: humans; details: cited from earlier work
[8] = 1.0 mg/kg scopolamine (Winger et al. 2020)

CN1CCC=C(c2nc(C3CC3)no2)C1 [CJ2100, 3-(3-alkyl-1,2,4-oxadiazol-5-yl)-1,2,5,6-tetrahydro-1-methylpylidine oxalate]
Immobility in forced swim test [1]: decrease in immobility
Swimming in forced swim test [1]: significant increase in swimming
Effect on ability of the rats to respond in PVT task (cognitive effect) [2]: did not modify the ability of the rats to respond; also recorded: silent
Mean titration duration of the stimulus (PVT) [2]: approximately 2 sec
Shift to the right in the discriminative stimulus effects of arecoline [3]: ~1 log unit
Effect on ability of the rats to respond in DMTS task (cognitive effect) [4]: did not modify the ability of the rats to respond; also recorded: silent
Mean duration of short term memory (DMTS) [4]: approximately 7 sec
Effect on arecoline-induced bradycardia [5]: attenuates this effect; also recorded: complete attenuation of this effect

CN1[C@@H]2C[C@@H](OC(=O)[C@H](CO)c3ccccc3)C[C@H]1[C@@H]1O[C@@H]12 [scopolamine]
Effect on the discriminative stimulus of arecoline [6, 8]: without affecting the discriminative stimulus of arecoline
Effect on the rate-modifying effects of arecoline [6, 8]: appeared to increase the rate-modifying effects of arecoline
Ability to modify the discriminative stimulus effects of arecoline ([6]; compared with CJ2100): much less able than CJ2100 to modify
Ability to modify the rate-suppressing effects of arecoline ([6]; compared with CJ2100): much less able than CJ2100 to modify
Cognitive side effects [7]: severe cognitive deficits; also recorded: cognitive impairment including memory disturbances
Anti-depressant effect in humans ([7]; oral and intravenous treatment): rapid anti-depressant effects
